In PubChem BioAssay AID328 (DTP/NCI, 2004) one finds T/C data, which are given here for 19 compounds.

This assay relates to BDF1 mice, P388 leukemia ip, median survival T/C. Kind of assay: NCI In Vivo Anticancer Drug Screen. Data for tumor model P388 Leukemia (intraperitoneal) in B6D2F1 (BDF1) mice. The following applies: endpoint: median survival time, higher = longer survival. The gist of the method: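 Antitumour effect was judged in vivo: survival in drug-treated mice, normalised to that of vehicle-dosed controls, gives the reported T/C.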

[1] abbreviates: dose: 25.0 mg/kg/injection, schedule: Q01DX009 (ip), vehicle: saline.
Where [2] appears, read: dose: 50.0 mg/kg/injection, schedule: Q01DX009 (ip), vehicle: saline.
Where [3] appears, read: dose: 100.0 mg/kg/injection, schedule: Q01DX009 (ip), vehicle: saline.
The mark [4] stands for this setting: dose: 100.0 mg/kg/injection, schedule: Q04DX003 (ip), vehicle: saline.
[5] abbreviates: dose: 50.0 mg/kg/injection, schedule: Q04DX003 (ip), vehicle: saline with Tween-80.
Setting [6] is: dose: 100.0 mg/kg/injection, schedule: Q04DX003 (ip), vehicle: saline with Tween-80.
[7] abbreviates: dose: 200.0 mg/kg/injection, schedule: Q04DX003 (ip), vehicle: saline.
[8] abbreviates: dose: 25.0 mg/kg/injection, schedule: Q04DX003 (ip), vehicle: saline with Tween-80.
The mark [9] stands for this setting: dose: 100.0 mg/kg/injection, schedule: Q01DX009 (ip), vehicle: Klucel (hydroxypropylcellulose) (HPC).
Setting [10] is: dose: 100.0 mg/kg/injection, schedule: Q04DX003 (ip), vehicle: Klucel (hydroxypropylcellulose) (HPC).
The mark [11] stands for this setting: dose: 200.0 mg/kg/injection, schedule: Q01DX009 (ip), vehicle: Klucel (hydroxypropylcellulose) (HPC).
Setting [12] is: dose: 200.0 mg/kg/injection, schedule: Q04DX003 (ip), vehicle: Klucel (hydroxypropylcellulose) (HPC).
The mark [13] stands for this setting: dose: 400.0 mg/kg/injection, schedule: Q01DX009 (ip), vehicle: Klucel (hydroxypropylcellulose) (HPC).
The mark [14] stands for this setting: dose: 400.0 mg/kg/injection, schedule: Q04DX003 (ip), vehicle: Klucel (hydroxypropylcellulose) (HPC).
Setting [15] is: dose: 200.0 mg/kg/injection, schedule: Q01DX009 (ip), vehicle: saline with Tween-80.

Several values for one entry are separate records, joined by “and”; a condition that tells them apart may be missing. Equal values may be shown once. Toxic doses and inconclusive results are not listed.

As to `C(CC1CO1)C1CO1` (centres undefined), the T/C was 119 % of control and 120 % of control (dose: 22.0 mg/kg/injection, schedule: Q01DX009 (ip), vehicle: saline); 157 % of control under setting [1]; 113 % of control (dose: 30.0 mg/kg/injection, schedule: Q04DX003 (ip), vehicle: saline); 150 % of control (dose: 33.0 mg/kg/injection, schedule: Q01DX009 (ip), vehicle: saline); 161 % of control and 166 % of control and 176 % of control under setting [2]; 172 % of control and 176 % of control (dose: 67.0 mg/kg/injection, schedule: Q04DX003 (ip), vehicle: saline). Besides, the T/C reads like this: (dose: 75.0 mg/kg/injection, schedule: Q01DX009 (ip), vehicle: saline) 175 % of control and 200 % of control; under setting [3], 215 % of control; under setting [4], 241 % of control and 200 % of control; (dose: 150.0 mg/kg/injection, schedule: Q04DX003 (ip), vehicle: saline) 240 % of control.
As to `CCCN(CCC)CCCC#N`, the T/C by setting is: under setting [5], 100 % of control; under setting [6], 100 % of control; (dose: 200.0 mg/kg/injection, schedule: Q04DX003 (ip), vehicle: saline with Tween-80) 100 % of control.
On to `CC(=O)Nc1ccc(C)c([N+](=O)[O-])c1`, for which the T/C by setting is: under setting [2], 92 % of control; under setting [3], 97 % of control; under setting [4], 99 % of control; (dose: 200.0 mg/kg/injection, schedule: Q01DX009 (ip), vehicle: saline) 118 % of control; under setting [7], 100 % of control; (dose: 400.0 mg/kg/injection, schedule: Q04DX003 (ip), vehicle: saline) 90 % of control.
As for `CCCCOC(=O)c1ccc(OCCOc2ccc(C(C)(C)CC(C)(C)C)cc2)c(NC(=O)CC(=O)c2cccc(N)c2)c1`, the T/C is, setting by setting: (dose: 6.25 mg/kg/injection, schedule: Q04DX003 (ip), vehicle: saline sonified) 100 % of control; (dose: 12.5 mg/kg/injection, schedule: Q04DX003 (ip), vehicle: saline sonified) 91 % of control.
Take `CSc1nnc(/C=C/c2ccc3c(c2)OCO3)c(=O)n1N`: the T/C runs as follows: (dose: 100.0 mg/kg/injection, schedule: Q04DX002 (ip), vehicle: saline with Tween-80) 106 % of control; (dose: 200.0 mg/kg/injection, schedule: Q04DX002 (ip), vehicle: saline with Tween-80) 106 % of control.
Consider `CO[C@H]1C[C@H](O[C@H]2CC[C@@]3(C)[C@H](CC[C@@H]4[C@@H]3CC[C@]3(C)[C@@H](C5=CC(=O)OC5)CC[C@]43O)C2)O[C@H](C)[C@H]1O`, for which the T/C (dose: 4.3 mg/kg/injection, schedule: Q01DX009 (ip), vehicle: saline with Tween-80) is 99 % of control; the T/C (dose: 6.4 mg/kg/injection, schedule: Q01DX009 (ip), vehicle: saline with Tween-80) was 107 % of control; the T/C (dose: 9.6 mg/kg/injection, schedule: Q01DX009 (ip), vehicle: saline with Tween-80) was 107 % of control.
On to `CSC(=S)N/N=C(\C)c1ccccn1`, for which the T/C is 92 % of control under setting [8], 99 % of control under setting [5] and 106 % of control under setting [6].
Turning to `C[n+]1ccc(/C=C/c2ccc(Cl)c(Cl)c2)cc1`, the T/C was 95 % of control (dose: 1.5 mg/kg/injection, schedule: Q01DX009 (ip), vehicle: Klucel (hydroxypropylcellulose) (HPC)); 109 % of control (dose: 3.0 mg/kg/injection, schedule: Q01DX009 (ip), vehicle: Klucel (hydroxypropylcellulose) (HPC)); 100 % of control (dose: 3.0 mg/kg/injection, schedule: Q04DX003 (ip), vehicle: Klucel (hydroxypropylcellulose) (HPC)); 100 % of control (dose: 6.0 mg/kg/injection, schedule: Q04DX003 (ip), vehicle: Klucel (hydroxypropylcellulose) (HPC)).
As for `CCC12C=CCN3CCC4(c5ccc(OC)cc5N(C)C4C(O)(C(=O)OC)C1OC(C)=O)C32` (centres undefined) (tested in a mixture with another compound), the T/C was 86 % of control and 95 % of control (dose: 0.06 mg/kg/injection, schedule: Q01DX009 (ip), vehicle: water); 90 % of control (dose: 0.12 mg/kg/injection, schedule: Q01DX009 (ip), vehicle: water); 86 % of control and 104 % of control (dose: 0.25 mg/kg/injection, schedule: Q01DX009 (ip), vehicle: water); 90 % of control (dose: 0.5 mg/kg/injection, schedule: Q01DX009 (ip), vehicle: water); 86 % of control and 90 % of control (dose: 1.0 mg/kg/injection, schedule: Q01DX009 (ip), vehicle: water); 100 % of control and 90 % of control (dose: 2.0 mg/kg/injection, schedule: Q01DX009 (ip), vehicle: water).
For `CN(C)c1ccc(/C=C/c2nc3ccccc3s2)cc1`, the T/C is 100 % of control under setting [9]; 112 % of control under setting [10]; 109 % of control under setting [11]; 108 % of control under setting [12]; 109 % of control under setting [13]; 100 % of control under setting [14].
Turning to `CCCCCCCCCCCCCCCC(=O)N(CCCN)C(C)CCCN(CC)CC` (centres undefined), the T/C was 106 % of control (dose: 12.5 mg/kg/injection, schedule: Q01DX009 (ip), vehicle: saline with Tween-80); 99 % of control (dose: 25.0 mg/kg/injection, schedule: Q01DX009 (ip), vehicle: saline with Tween-80); 107 % of control under setting [5]; 93 % of control under setting [6].
Turning to `CCN(CC)S(=O)(=O)c1ccc(-c2cc(Cl)c3cc(S(=O)(=O)F)ccc3n2)cc1`, the T/C was 110 % of control (dose: 100.0 mg/kg/injection, schedule: Q01DX009 (ip), vehicle: saline with Tween-80); 90 % of control under setting [15]; 100 % of control (dose: 400.0 mg/kg/injection, schedule: Q01DX009 (ip), vehicle: saline with Tween-80).
Turning to `COC(=O)CCC#CC#CCCC(=O)OC`, the T/C runs as follows: under setting [10], 109 % of control; under setting [12], 104 % of control; under setting [14], 109 % of control.
Turning to `C=CC(C)(O)CCC1C(=C)CCC2C(C)(C)CCCC12C` (centres undefined), the T/C was 90 % of control under setting [9]; 95 % of control under setting [10]; 86 % of control under setting [11]; 100 % of control under setting [12]; 95 % of control under setting [13]; 95 % of control under setting [14].
For the compound `CCCCCC(C(C)=O)(C1=NC(C)(C)CC(C)O1)c1ccccc1` (centres undefined), the T/C by setting is: under setting [4], 110 % of control; under setting [7], 95 % of control.
In the case of `O=C(c1ccccc1)c1ccccc1C(=O)c1ccccc1`, the T/C is 95 % of control (dose: 25.0 mg/kg/injection, schedule: Q01DX009 (ip), vehicle: Klucel (hydroxypropylcellulose) (HPC)); 100 % of control (dose: 50.0 mg/kg/injection, schedule: Q01DX009 (ip), vehicle: Klucel (hydroxypropylcellulose) (HPC)); 89 % of control and 91 % of control under setting [9]; 109 % of control under setting [10]; 104 % of control under setting [12]; 118 % of control under setting [14].
Turning to `C[C@]12CC[C@H](OC(=O)Cc3ccc(N(CCCl)CCCl)cc3)CC1=CC[C@@H]1[C@@H]2CC[C@]2(C)C(=O)CC[C@@H]12`, the T/C was 113 % of control (dose: 115.0 mg/kg/injection, schedule: Q04DX003 (ip), vehicle: saline with Tween-80); 215 % of control under setting [15]; 159 % of control (dose: 400.0 mg/kg/injection, schedule: Q04DX003 (ip), vehicle: alcohol); 272 % of control (dose: 600.0 mg/kg/injection, schedule: Q04DX003 (ip), vehicle: alcohol).
Regarding `FC(F)(F)c1ccc2c(c1)N(CCCN(CCCl)CCCl)c1ccccc1S2`, the T/C runs as follows: (dose: 3.1 mg/kg/injection, schedule: Q04DX003 (ip), vehicle: saline with Tween-80) 112 % of control; (dose: 6.25 mg/kg/injection, schedule: Q04DX003 (ip), vehicle: saline with Tween-80) 122 % of control; under setting [8], 119 % of control.
As to `C=C(C)C(=O)O[C@H]1[C@H]2[C@H](OC(=O)[C@H]2C)[C@H](O)[C@@H](C)[C@@H]2C=CC(=O)[C@]21C`, the T/C reads like this: (dose: 3.13 mg/kg/injection, schedule: Q01DX009 (ip), vehicle: saline) 102 % of control; (dose: 6.25 mg/kg/injection, schedule: Q01DX009 (ip), vehicle: saline) 110 % of control; under setting [1], 161 % of control.
